# Values quoted from earlier work in US20230292757A1, “SYNERGISTIC AGROCHEMICAL COMPOSITION COMPRISING DIAMIDES AND PLANT GROWTH REGULATORS” (priority 2020, published 2023).
# Key:
# S. littoralis = conditions: oral
# L. migratoria = conditions: oral
smiles,measurement,setting,value
"C=C1C[C@]23C[C@@]1(O)CC[C@H]2[C@@]12C=C[C@H](O)[C@@](C)(C(=O)O1)[C@H]2[C@@H]3C(=O)O [Gibberellic acid (GA3), Gibberellic acid]",food consumption,S. littoralis,significant reduction
same,food consumption,L. migratoria,significant reduction
